The subject of assay [1] is human lung cancer strain NCI-H441. In kind it is cell-based. A digest of the protocol:
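Signal came from […] measured per well once the reagent was added. Beforehand, cells were cultured at 37°C and 5% carbon dioxide on a compound series serially diluted in dimethyl sulfoxide.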

Assay [2] deals with HRAS wild-type protein (Homo sapiens, UniProt P01112). As to the kind of experiment: Binding to HRAS by surface plasmon resonance (SPR), KD and KD ratio to KRAS. Conditions: ratio of KD for HRAS wild-type protein to KD for KRAS. Summed up: (§1)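 Recombinant RAS proteins bearing a biotinylated Avi tag and loaded with GDP served as the captured ligand, recaptured fresh every cycle. Binding responses were referenced to an uncoated surface and a buffer-only blank cycle. Dissociation constants were obtained by 1:1 model fitting at 30°C.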
Sequence of HRAS wild-type protein (P01112 whole entry): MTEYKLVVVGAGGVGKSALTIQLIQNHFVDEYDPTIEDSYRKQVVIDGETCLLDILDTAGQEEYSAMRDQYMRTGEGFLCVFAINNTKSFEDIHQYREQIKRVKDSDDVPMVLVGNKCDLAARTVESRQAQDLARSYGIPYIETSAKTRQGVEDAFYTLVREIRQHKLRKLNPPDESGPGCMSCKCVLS

In assay [3] the target is GDP-bound NRAS wild-type protein (Homo sapiens, UniProt P01111). As to the kind of experiment: Binding to NRAS by surface plasmon resonance (SPR), KD and KD ratio to KRAS. The note with it: ratio of KD for GDP-bound NRAS wild-type protein to KD for KRAS. Summed up:
as §1
On the technique in general: In SPR one partner is held on a chip, and binding of the other changes the refractive index at the surface.

Where a SMILES comes first, the peptide text is derived from it. Bridges are numbered along the chain shown (N, C = ends). [ ]: non-standard residue; d: D form. The star is where a group is joined. hPhe(3-Cl-4-CF3) = N[C@@H](CCc1ccc(C(F)(F)F)c(Cl)c1)C(=O)O; NPrPhe(4-CF3) = CCCN[C@@H](Cc1ccc(C(F)(F)F)cc1)C(=O)O; Pip(4,4-F2) = O=C(O)[C@@H]1CC(F)(F)CCN1; NMeGly(cPent) = CN[C@H](C(=O)O)C1CCCC1; Pro(4,4-F2) = O=C(O)[C@@H]1CC(F)(F)CN1; Hyp = O=C(O)[C@@H]1C[C@@H](O)CN1; NMeD = CN[C@@H](CC(=O)O)C(=O)O; NMeL = CN[C@@H](CC(C)C)C(=O)O; Morpholide = C1CN(*)CCO1; Ac5c = NC1(C(=O)O)CCCC1; Aze = O=C(O)[C@@H]1CCN1; Ac4c = NC1(C(=O)O)CCC1; NPrGly = CCCNCC(=O)O; Sar = CNCC(=O)O

Sequence of GDP-bound NRAS wild-type protein (P01111 whole entry): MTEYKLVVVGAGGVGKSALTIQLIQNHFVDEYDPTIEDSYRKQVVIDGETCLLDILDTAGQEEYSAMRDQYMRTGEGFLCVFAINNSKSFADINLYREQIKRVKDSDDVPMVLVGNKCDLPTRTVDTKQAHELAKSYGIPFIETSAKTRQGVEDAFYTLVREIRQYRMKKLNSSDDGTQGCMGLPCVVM

In assay [1], `CCCN1C(=O)CN(C)C(=O)[C@@H]2CCN2C(=O)[C@H]([C@@H](C)CC)NC(=O)[C@H](CC(C)C)N(C)C(=O)C[C@@H](C(=O)N2CCOCC2)N(C)C(=O)[C@H](C2CCCC2)N(C)C(=O)C2(CCCC2)NC(=O)[C@@H]2CC(F)(F)CCN2C(=O)[C@H](CCc2ccc(C(F)(F)F)c(Cl)c2)NC(=O)CN(C)C(=O)[C@@H]1Cc1ccc(C(F)(F)F)cc1` [PP0312] ([NMeL]I[Aze][Sar][NPrPhe(4-CF3)][Sar][hPhe(3-Cl-4-CF3)][Pip(4,4-F2)][Ac5c][NMeGly(cPent)][NMeD]-Morpholide; lactam N-11) came in with an IC50 of 0.0824 µM. For the same compound, the “HRAS /KRAS” value in assay [2] was “B (a compound having 3 or more and less than 10 is denoted as B)”. Besides, the “NRAS /KRAS” value in assay [3] is “B (a compound having 3 or more and less than 10 is denoted as B)”.
`CCCN1C(=O)CN(C)C(=O)[C@@H]2CCN2C(=O)[C@H]([C@@H](C)CC)NC(=O)[C@H](CC(C)C)N(C)C(=O)C[C@@H](C(=O)N2CCOCC2)N(C)C(=O)[C@H](C2CCCC2)N(C)C(=O)C2(CCCC2)NC(=O)CN(C)C(=O)[C@H](CCc2ccc(C(F)(F)F)c(Cl)c2)NC(=O)CN(C)C(=O)[C@@H]1Cc1ccc(C(F)(F)F)cc1` [PP0314] ([NMeL]I[Aze][Sar][NPrPhe(4-CF3)][Sar][hPhe(3-Cl-4-CF3)][Sar][Ac5c][NMeGly(cPent)][NMeD]-Morpholide; lactam N-11) yielded an IC50 in assay [1] of 0.0581 µM. Besides, the “HRAS /KRAS” value in assay [2] was “C (A compound having a KD ratio of 0.1 or more and less than 3 is denoted as C)”. In addition, the “NRAS /KRAS” value in assay [3] is “B (a compound having 3 or more and less than 10 is denoted as B)”.
Regarding `CCCN1CC(=O)NC2(CCCC2)C(=O)N(C)[C@@H](C2CCCC2)C(=O)N(C)[C@H](C(=O)N2CCOCC2)CC(=O)N(C)[C@@H](CC(C)C)C(=O)N[C@@H]([C@@H](C)CC)C(=O)N2CC[C@H]2C(=O)N(C)CC(=O)N(CCC)[C@@H](Cc2ccc(C(F)(F)F)cc2)C(=O)N(C)CC(=O)N[C@@H](CCc2ccc(C(F)(F)F)c(Cl)c2)C1=O` [PP0315] ([NMeL]I[Aze][Sar][NPrPhe(4-CF3)][Sar][hPhe(3-Cl-4-CF3)][NPrGly][Ac5c][NMeGly(cPent)][NMeD]-Morpholide; lactam N-11), half-maximal inhibition in assay [1] (IC50) was put at 0.148 µM. For the same compound, the “HRAS /KRAS” value in assay [2] is “B (a compound having 3 or more and less than 10 is denoted as B)”. In addition, in assay [3], the “NRAS /KRAS” value is “B (a compound having 3 or more and less than 10 is denoted as B)”.
`CC[C@H](C)[C@@H]1NC(=O)[C@H](CC(C)C)N(C)C(=O)C[C@@H](C(=O)N2CCOCC2)N(C)C(=O)[C@H](C2CCCC2)N(C)C(=O)C2(CCCC2)NC(=O)[C@@H]2CCCN2C(=O)[C@H](CCc2ccc(C(F)(F)F)c(Cl)c2)NC(=O)CN(C)C(=O)[C@H](Cc2ccc(C)cc2)N2CCCC[C@@H](C2=O)N(C)C(=O)CN(C)C1=O` [PP0316] gave an IC50 in assay [1] of 0.0028 µM. Also, the “HRAS /KRAS” value in assay [2] was “B (a compound having 3 or more and less than 10 is denoted as B)”. Also, in assay [3], the “NRAS /KRAS” value was “C (A compound having a KD ratio of 0.1 or more and less than 3 is denoted as C)”.
Consider `CC[C@H](C)[C@@H]1NC(=O)[C@H](CC(C)C)N(C)C(=O)C[C@@H](C(=O)N2CCOCC2)N(C)C(=O)[C@H](C2CCCC2)N(C)C(=O)C2(CCCC2)NC(=O)[C@@H]2CCCN2C(=O)[C@H](CCc2ccc(C(F)(F)F)c(Cl)c2)NC(=O)CN(C)C(=O)[C@H](Cc2ccc(C)cc2)N2CCCCC[C@@H](C2=O)N(C)C(=O)CN(C)C1=O` [PP0317], for which the IC50 in assay [1] amounted to 0.0322 µM. Further, in assay [2], the “HRAS /KRAS” value is “B (a compound having 3 or more and less than 10 is denoted as B)”. The “NRAS /KRAS” value in assay [3] is “B (a compound having 3 or more and less than 10 is denoted as B)”.
Consider `CC[C@H](C)[C@@H]1NC(=O)[C@H](CC(C)C)N(C)C(=O)C[C@@H](C(=O)N2CCOCC2)N(C)C(=O)[C@H](C2CCCC2)N(C)C(=O)C2(CCCC2)NC(=O)[C@@H]2CCCN2C(=O)[C@H](CCc2ccc(C(F)(F)F)c(Cl)c2)NC(=O)CN(C)C(=O)[C@H](Cc2ccc(C(F)(F)F)cc2)N2CCCC[C@@H](C2=O)N(C)C(=O)CN(C)C1=O` [PP0318], for which half-maximal inhibition in assay [1] (IC50) was put at 0.0023 µM. Besides, in assay [2], the “HRAS /KRAS” value is “B (a compound having 3 or more and less than 10 is denoted as B)”. In addition, the “NRAS /KRAS” value in assay [3] is “B (a compound having 3 or more and less than 10 is denoted as B)”.
In assay [1], `CCCN1C(=O)CN(C)C(=O)CN(C)C(=O)[C@H]([C@@H](C)CC)NC(=O)[C@H](CC(C)C)N(C)C(=O)C[C@@H](C(=O)N2CCOCC2)NC(=O)[C@H](C2CCCC2)N(C)C(=O)C2(CCC2)NC(=O)[C@@H]2CCCN2C(=O)[C@H](CCc2ccc(C(F)(F)F)c(Cl)c2)NC(=O)CN(C)C(=O)[C@@H]1Cc1ccc(C(F)(F)F)cc1` [PP0320] ([NMeL]I[Sar][Sar][NPrPhe(4-CF3)][Sar][hPhe(3-Cl-4-CF3)]P[Ac4c][NMeGly(cPent)]D-Morpholide; lactam N-11) returned an IC50 of 0.0923 µM. The “HRAS /KRAS” value in assay [2] was “B (a compound having 3 or more and less than 10 is denoted as B)”. Further, in assay [3], the “NRAS /KRAS” value is “B (a compound having 3 or more and less than 10 is denoted as B)”.
For the compound `CCCN1C(=O)CN(C)C(=O)CN(C)C(=O)[C@H]([C@@H](C)CC)NC(=O)[C@H](CC(C)C)N(C)C(=O)C[C@@H](C(=O)N2CCOCC2)NC(=O)[C@H](C2CCCC2)N(C)C(=O)C2(CCCC2)NC(=O)[C@@H]2CC(F)(F)CN2C(=O)[C@H](CCc2ccc(C(F)(F)F)c(Cl)c2)NC(=O)CN(C)C(=O)[C@@H]1Cc1ccc(C(F)(F)F)cc1` [PP0321] ([NMeL]I[Sar][Sar][NPrPhe(4-CF3)][Sar][hPhe(3-Cl-4-CF3)][Pro(4,4-F2)][Ac5c][NMeGly(cPent)]D-Morpholide; lactam N-11), the midpoint of inhibition in assay [1], the IC50, lay at 0.0557 µM. The “HRAS /KRAS” value in assay [2] was “B (a compound having 3 or more and less than 10 is denoted as B)”. The “NRAS /KRAS” value in assay [3] is “B (a compound having 3 or more and less than 10 is denoted as B)”.
Consider `CCCN1C(=O)CN(C)C(=O)CN(C)C(=O)[C@H]([C@@H](C)CC)NC(=O)[C@H](CC(C)C)N(C)C(=O)C[C@@H](C(=O)N2CCOCC2)NC(=O)[C@H](C2CCCC2)N(C)C(=O)C2(CCC2)NC(=O)[C@@H]2CC(F)(F)CN2C(=O)[C@H](CCc2ccc(C(F)(F)F)c(Cl)c2)NC(=O)CN(C)C(=O)[C@@H]1Cc1ccc(C(F)(F)F)cc1` [PP0322] ([NMeL]I[Sar][Sar][NPrPhe(4-CF3)][Sar][hPhe(3-Cl-4-CF3)][Pro(4,4-F2)][Ac4c][NMeGly(cPent)]D-Morpholide; lactam N-11), for which the IC50 in assay [1] was 0.0742 µM. Further, in assay [2], the “HRAS /KRAS” value was “C (A compound having a KD ratio of 0.1 or more and less than 3 is denoted as C)”. Moreover, in assay [3], the “NRAS /KRAS” value is “B (a compound having 3 or more and less than 10 is denoted as B)”.
Compound `CCCN1C(=O)CN(C)C(=O)CN(C)C(=O)[C@H]([C@@H](C)CC)NC(=O)[C@H](CC(C)C)N(C)C(=O)C[C@@H](C(=O)N2CCOCC2)NC(=O)[C@H](C2CCCC2)N(C)C(=O)C2(CCCC2)NC(=O)[C@@H]2C[C@@H](OCC)CN2C(=O)[C@H](CCc2ccc(C(F)(F)F)c(Cl)c2)NC(=O)CN(C)C(=O)[C@@H]1Cc1ccc(C(F)(F)F)cc1` [PP0323] ([NMeL]I[Sar][Sar][NPrPhe(4-CF3)][Sar][hPhe(3-Cl-4-CF3)][Hyp](Et)[Ac5c][NMeGly(cPent)]D-Morpholide; lactam N-11) registered an IC50 in assay [1] of 0.064 µM. The “HRAS /KRAS” value in assay [2] is “B (a compound having 3 or more and less than 10 is denoted as B)”. In assay [3], the “NRAS /KRAS” value is “B (a compound having 3 or more and less than 10 is denoted as B)”.

In general, IC50 refers to the concentration at which inhibition is half-maximal.
